Measured values reported in patent US6391870B2, “Pyrrolo [2,1-b][1,3]benzothiazepines with atypical antipsychotic activity” (Sigma-Tau Industrie Farmaceutiche Riunite S.p.A., priority 1998, dated 2002).
Read-outs that look alike come from different tables or passages of the source.

Experiments:
muscarinic receptors = assay type: binding; details: rat cortex, [3H]QNB; average of three determinations
[1] = tested on: 5-MeO-DMT-induced head twitches in mouse; assay: Antagonism of 5-MeO-DMT-induced head twitches in mouse; assay type: in vivo; details: s.c., 30 min before 5-MeO-DMT 10 mg/Kg s.c.
DA-3 receptors = molecular target: T1, DA-3 receptors (Rattus norvegicus, UniProt P19020); assay: [3H]-7-OH-DPAT binding to DA-3 receptors (rat olfactory tubercle); details: for Ki: [3H]-7-OH-DPAT, average ± standard error
T1 construct: olfactory tubercle for DA-3 receptors; from tissue; host or cells: rat olfactory tubercle membranes
T1 sequence (P19020 whole entry): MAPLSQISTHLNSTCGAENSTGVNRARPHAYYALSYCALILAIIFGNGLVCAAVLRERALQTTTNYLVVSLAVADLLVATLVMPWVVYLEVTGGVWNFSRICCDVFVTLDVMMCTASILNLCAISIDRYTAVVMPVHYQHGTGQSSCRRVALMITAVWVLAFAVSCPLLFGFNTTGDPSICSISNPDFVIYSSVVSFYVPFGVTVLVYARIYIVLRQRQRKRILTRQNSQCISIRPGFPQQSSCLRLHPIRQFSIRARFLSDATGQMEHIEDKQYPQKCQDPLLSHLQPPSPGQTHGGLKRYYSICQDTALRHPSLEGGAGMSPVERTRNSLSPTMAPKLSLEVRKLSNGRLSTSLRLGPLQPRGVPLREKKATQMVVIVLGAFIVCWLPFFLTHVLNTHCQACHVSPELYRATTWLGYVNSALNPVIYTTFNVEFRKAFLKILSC

DA-1 receptors = molecular target: T2, DA-1 receptors (Rattus norvegicus, UniProt P18901); assay: [3H]SCH 23390 binding to DA-1 receptors (rat striatum); details: for Ki: [3H]SCH 23390, average ± standard error, read-out: D1 affinity Ki
T2 construct: striatum for DA-1 and DA-2 receptors; from tissue; host or cells: rat striatum membranes
T2 sequence (P18901 whole entry): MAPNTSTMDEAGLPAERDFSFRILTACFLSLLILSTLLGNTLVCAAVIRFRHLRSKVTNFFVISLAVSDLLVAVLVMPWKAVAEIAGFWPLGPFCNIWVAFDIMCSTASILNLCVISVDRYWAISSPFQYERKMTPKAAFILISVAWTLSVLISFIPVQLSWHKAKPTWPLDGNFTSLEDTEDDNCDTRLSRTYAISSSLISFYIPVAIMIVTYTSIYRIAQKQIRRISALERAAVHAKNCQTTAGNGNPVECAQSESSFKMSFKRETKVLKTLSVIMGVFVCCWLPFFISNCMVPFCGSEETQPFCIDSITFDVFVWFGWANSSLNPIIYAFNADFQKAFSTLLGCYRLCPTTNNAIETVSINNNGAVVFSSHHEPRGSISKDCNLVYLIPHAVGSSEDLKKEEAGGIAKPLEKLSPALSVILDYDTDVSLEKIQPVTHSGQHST

catalepsy in rats = details: male, Wistar, rat, in vivo, sc
DA-2 receptors = molecular target: T3, DA-2 receptors (Rattus norvegicus, UniProt P61169); assay: [3H]Spiperone binding to DA-2 receptors (rat striatum); details: stereoselectivity between enantiomers
T3 construct: striatum for DA-1 and DA-2 receptors; from tissue; host or cells: rat striatum membranes
T3 sequence (P61169 whole entry): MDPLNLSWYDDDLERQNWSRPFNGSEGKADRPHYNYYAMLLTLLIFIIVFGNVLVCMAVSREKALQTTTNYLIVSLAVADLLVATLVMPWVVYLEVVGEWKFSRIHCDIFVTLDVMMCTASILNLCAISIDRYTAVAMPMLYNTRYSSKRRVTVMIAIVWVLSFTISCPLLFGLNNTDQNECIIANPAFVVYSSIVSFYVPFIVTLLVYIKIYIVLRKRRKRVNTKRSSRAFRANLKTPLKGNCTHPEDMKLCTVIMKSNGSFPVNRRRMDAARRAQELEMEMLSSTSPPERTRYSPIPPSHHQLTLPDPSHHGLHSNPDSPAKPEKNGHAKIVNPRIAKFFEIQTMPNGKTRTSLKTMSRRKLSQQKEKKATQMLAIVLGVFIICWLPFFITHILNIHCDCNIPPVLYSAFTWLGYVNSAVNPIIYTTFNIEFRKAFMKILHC

Structure (SMILES)	Ki (muscarinic receptors) [µM]	Dosage that determines 50% of the Head-twitching inhibition induced by 5-MeO-DMT [1] [mg/kg]	D3 pKi (DA-3 receptors)	Ki (DA-3 receptors; read-out: D3 affinity Ki) [µM]	D1 pKi (DA-1 receptors)	Ki (DA-1 receptors) [µM]	Time in minutes of insurgence of catalepsy in 100% of the animals (catalepsy in rats) [min]	Times less affinity for the D2 receptor than the opposite enantiomer (DA-2 receptors)	Ki (DA-3 receptors; D3 affinity Ki) [µM]
CN1CCN(C2Cn3cccc3Sc3ccc(Cl)cc32)CC1 (racemic) [ST1455, (±)-7-chloro-9-(4-methylpiperazin-1-yl)-9,10-dihydropyrrolo[2,1-b][1,3]benzothiazepine]	0.418	–	–	–	–	–	–	–	–
CN1CCN(C2Cn3cccc3Sc3ccc(F)cc32)CC1 (racemic) [ST1456, (±)-7-fluoro-9-(4-methylpiperazin-1-yl)-9,10-dihydropyrrolo[2,1-b][1,3]benzothiazepine]	2.22	–	–	–	–	–	–	–	–
CN1CCN(C2Cn3cccc3Sc3ccc(Cl)cc32)CC1 (single isomer, unassigned) [ST1461]	0.514	–	–	–	–	–	–	–	–
CN1CCN(C2Cn3cccc3Sc3ccc(Cl)cc32)CC1 (single isomer, unassigned; (+)) [ST1460, (+)-7-chloro-9-(4-methylpiperazin-1-yl)-9,10-dihydropyrrolo[2,1-b][1,3]benzothiazepine]	0.286	–	–	–	–	–	–	–	–
CN1CCN([C@@H]2Cc3ccccc3Sc3ccc(Cl)cc32)CC1 [R-(−)-Octoclothepin]	0.155	0.089	7.68	0.0209	8.69	0.00202 ± 0.00017	120	approximately 10 times	–
CN1CCN(C2Cc3ccccc3Sc3ccc(Cl)cc32)CC1 (centres unmarked) [RS-Octoclothepin, 8-chloro-10-(4-methylpiperazino)-10,11-dihydrodibenzo[b,f]thiepin]	0.434	–	8.62	0.00238	8.64	0.00228 ± 0.00015	120	–	–
CN1CCN([C@H]2Cc3ccccc3Sc3ccc(Cl)cc32)CC1 [S-(+)-Octoclothepin]	0.749	–	–	–	8.71	0.00197 ± 0.00053	300	–	0.00075
